Like-named read-outs stand apart in the source and are kept apart here.
Assays:
Recombinant IDO1 = target: T1, Recombinant IDO1 (Homo sapiens, UniProt P14902); test: IDO1 enzymatic assay; type: biochemical; conditions: 50 nM IDO1, 1.3 mM D-tryptophan, read-out: Enzyme IC50 (nM) IDO1
T1 construct: His tag (N); made in house; host or cells: E. coli
Summary of the method: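 N-terminally His-tagged enzyme from E. coli (50 nM) was incubated with compound, 1.3 mM D-tryptophan, 5 mM ascorbate, 6.25 μM methylene blue and 0.4 mg/mL catalase in 50 mM potassium phosphate pH 7.5, 0.1% BSA for 1.5 h at 24° C. N′-formylkynurenine formation was followed at 321 nm for 1 h; IC50 from rate slopes.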

Recombinant TDO = target: T2, Recombinant TDO (Homo sapiens, UniProt P48775); test: TDO enzymatic assay; type: biochemical; conditions: 100 nM TDO, 0.5 mM L-tryptophan, read-out: Enzyme IC50 (nM) TDO
T2 construct: His tag (C); made in house; host or cells: E. coli
Description: Recombinant TDO was overexpressed and purified from E. coli cells with a C-terminal His tag. TDO enzymatic assay was performed using the same methodology as IDO1 enzymatic assay except that 100 nM TDO and 0.5 mM L-tryptophan (Km concentration) were used in the TDO assay.

[1] = target: T3, cellular IDO1 in HeLa cells (Homo sapiens, UniProt P14902); test: HeLa cell-based IDO1 Kyn (kynurenine) production assay; conditions: IFN-γ 100 ng/mL, 48 hours
T3 construct: endogenous in cells; host or cells: HeLa cells (American Type Tissue Culture Collection), induced with human recombinant IFN-γ
Summary of the method: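 IFN-γ-induced HeLa cells (100 ng/mL) in phenol red-free DMEM with 0.4 mM L-Trp, compounds added together with IFN-γ, 48 h at 37 °C. Supernatant Kyn read at 480 nm after TCA precipitation and 4-(dimethylamino)benzaldehyde reaction. IC50 from four-parameter logistic fit.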

[2] = Table 1, 5-substituted imidazo[1,5-a]pyridines
[3] = Table 2, 8-substituted imidazo[1,5-a]pyridines

T1 sequence (P14902 whole entry): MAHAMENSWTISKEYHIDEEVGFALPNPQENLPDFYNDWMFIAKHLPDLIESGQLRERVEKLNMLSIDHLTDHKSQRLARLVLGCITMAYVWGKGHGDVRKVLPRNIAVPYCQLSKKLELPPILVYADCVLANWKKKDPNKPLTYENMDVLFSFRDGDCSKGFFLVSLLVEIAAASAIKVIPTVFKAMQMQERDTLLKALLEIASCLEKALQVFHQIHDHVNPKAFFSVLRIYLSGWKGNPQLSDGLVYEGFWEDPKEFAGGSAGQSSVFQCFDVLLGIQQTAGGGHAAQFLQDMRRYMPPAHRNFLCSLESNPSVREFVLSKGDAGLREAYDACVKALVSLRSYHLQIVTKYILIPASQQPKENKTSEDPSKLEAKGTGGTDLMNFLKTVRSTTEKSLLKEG
T3 sequence (P14902 whole entry): as above
T2 sequence (P48775 whole entry): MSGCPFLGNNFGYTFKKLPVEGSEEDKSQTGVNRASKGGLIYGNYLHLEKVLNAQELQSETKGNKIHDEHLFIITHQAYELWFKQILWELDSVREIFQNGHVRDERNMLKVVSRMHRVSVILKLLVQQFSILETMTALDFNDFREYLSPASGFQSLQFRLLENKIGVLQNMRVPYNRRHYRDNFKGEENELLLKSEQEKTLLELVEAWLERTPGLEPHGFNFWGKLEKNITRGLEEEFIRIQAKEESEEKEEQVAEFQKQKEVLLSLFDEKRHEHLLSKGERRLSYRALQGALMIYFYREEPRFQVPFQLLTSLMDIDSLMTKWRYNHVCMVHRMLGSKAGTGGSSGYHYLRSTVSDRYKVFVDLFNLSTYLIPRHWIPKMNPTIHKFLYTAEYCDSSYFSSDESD

## FC(c1cc(Cl)cc2cncn12)C1CCC(F)(F)CC1 (stereo not drawn) [Example A020, 7-chloro-5-((4,4-difluorocyclohexyl)fluoromethyl)imidazo[1,5-a]pyridine]
Recombinant IDO1; [2]
  IC50: 8900 nM
Recombinant TDO; [2]
  IC50: 350 nM
[1]; [2]
  EC50: > 10000 nM

## Clc1cc(CC2CCCCC2)n2cncc2c1 [Example A026, 7-chloro-5-(cyclohexylmethyl)imidazo[1,5-a]pyridine]
Recombinant IDO1; [2]
  IC50: 107 nM
Recombinant TDO; [2]
  IC50: 73 nM
[1]; [2]
  EC50: > 10000 nM

## OC(c1c(Br)ccc2cncn12)C1CCCCC1 (single isomer, unassigned) [Example A118b]
Recombinant IDO1; [2]
  IC50: 1600 nM
Recombinant TDO; [2]
  IC50: 53000 nM
[1]; [2]
  EC50: > 10000 nM

## OC(CC1CCCCC1)c1c(C(F)(F)F)ccc2cncn12 (single isomer, unassigned) [Example A127a]
Recombinant IDO1; [2]
  IC50: 17 nM
Recombinant TDO; [2]
  IC50: 15000 nM
[1]; [2]
  EC50: 169 nM

## OC(c1c(C2CC2)ccn2cncc12)C1CCCCC1 (stereo not drawn) [Example B107, Cyclohexyl (7-cyclopropylimidazo[1,5-a]pyridin-8-yl)methanol]
Recombinant IDO1; [3]
  IC50: 48 nM
Recombinant TDO; [3]
  IC50: 850 nM
[1]; [3]
  EC50: 256 nM

## OC(CC1CCCCC1)c1cc(Cl)cn2cncc12 (stereo not drawn) [Example B013, 1-(6-Chloroimidazo[1,5-a]pyridin-8-yl)-2-cyclohexylethan-1-ol]
Recombinant IDO1; [3]
  IC50: 240 nM
Recombinant TDO; [3]
  IC50: 190 nM
[1]; [3]
  EC50: > 10000 nM

## COc1ccc2cncn2c1C(O)C1CCCCC1 (stereo not drawn) [Example A131, cyclohexyl(6-methoxyimidazo[1,5-a]pyridin-5-yl)methanol]
Recombinant IDO1; [2]
  IC50: 28 nM
Recombinant TDO; [2]
  IC50: 4100 nM
[1]; [2]
  EC50: 939 nM

## OC(c1c(Cl)c(F)cc2cncn12)C1CCCCC1 (stereo not drawn) [Example A151, (6-chloro-7-fluoroimidazo[1,5-a]pyridin-5-yl)(cyclohexyl)methanol]
Recombinant IDO1; [2]
  IC50: 39 nM
Recombinant TDO; [2]
  IC50: 600 nM
[1]; [2]
  EC50: 415 nM

## CC(C)c1ccc2cncn2c1C(O)C1CCCCC1 (stereo not drawn) [Example A135, cyclohexyl(6-isopropylimidazo[1,5-a]pyridin-5-yl)methanol]
Recombinant IDO1; [2]
  IC50: 39 nM
Recombinant TDO; [2]
  IC50: 2700 nM
[1]; [2]
  EC50: 54 nM

## OC(CC1CCCCC1)c1c(Br)ccc2cncn12 (single isomer, unassigned) [Example A119b]
Recombinant IDO1; [2]
  IC50: 1300 nM
Recombinant TDO; [2]
  IC50: 38000 nM
[1]; [2]
  EC50: 9430 nM

## OC(CC1CCCCC1)c1c(C(F)(F)F)ccc2cncn12 (stereo not drawn) [Example A127, 2-cyclohexyl-1-(6-(trifluoromethyl)imidazo[1,5-a]pyridine-5-yl)ethan-1-ol]
Recombinant IDO1; [2]
  IC50: 44 nM
Recombinant TDO; [2]
  IC50: 3500 nM
[1]; [2]
  EC50: 165 nM

## OC(c1c(C2CC2)ccc2cncn12)C1CCCCC1 (single isomer, unassigned) [Example A129a]
Recombinant IDO1; [2]
  IC50: 14 nM
Recombinant TDO; [2]
  IC50: 1700 nM
[1]; [2]
  EC50: 38 nM

## Cc1ccn2cncc2c1C(O)C1CCCCC1 (single isomer, unassigned) [Example B102b]
Recombinant IDO1; [3]
  IC50: 3100 nM
Recombinant TDO; [3]
  IC50: 31000 nM
[1]; [3]
  EC50: > 10000 nM

## OC(CC1CCCCC1)c1c(C2CC2)ccc2cncn12 (stereo not drawn) [Example A139]
Recombinant IDO1; [2]
  IC50: 35 nM
Recombinant TDO; [2]
  IC50: 2400 nM
[1]; [2]
  EC50: 435 nM

## OC(c1c(Cl)c(Cl)cc2cncn12)C1CCCCC1 (stereo not drawn) [Example A143, cyclohexyl(6,7-dichloroimidazo[1,5-a]pyridin-5-yl)methanol]
Recombinant IDO1; [2]
  IC50: 15 nM
Recombinant TDO; [2]
  IC50: 270 nM
[1]; [2]
  EC50: 1110 nM

## OC(c1c(I)ccn2cncc12)C1CCCCC1 (stereo not drawn) [Example B103, cyclohexyl(7-iodoimidazo[1,5-a]pyridin-8-yl)methanol]
Recombinant IDO1; [3]
  IC50: 69 nM
Recombinant TDO; [3]
  IC50: 8000 nM
[1]; [3]
  EC50: 575 nM

## O[C@H](c1cc(Cl)cc2cncn12)C1CCCCC1 [Example A101a, (S)-(7-chloroimidazo[1,5-a]pyridin-5-yl)(cyclohexyl)methanol]
Recombinant IDO1; [2]
  IC50: 9.6 nM
Recombinant TDO; [2]
  IC50: 29 nM
[1]; [2]
  EC50: 326 nM

## OC(c1c(C2CC2)ccc2cncn12)C1CCCCC1 (single isomer, unassigned) [Example A126b]
Recombinant IDO1; [2]
  IC50: 6800 nM
Recombinant TDO; [2]
  IC50: 74000 nM
[1]; [2]
  EC50: > 10000 nM

## OC(c1cccn2cncc12)C1CCCCC1 (stereo not drawn) [Example B001, Cyclohexyl(imidazo[1,5-a]pyridin-8-yl)methanol]
Recombinant IDO1; [3]
  IC50: 1000 nM
Recombinant TDO; [3]
  IC50: 630 nM
[1]; [3]
  EC50: > 10000 nM

## OC(c1cc(C(F)(F)F)cc2cncn12)C1CCCC1 (stereo not drawn) [Example A110, Cyclopentyl(7-(trifluoromethyl)imidazo[1,5-a]pyridin-5-yl)methanol]
Recombinant IDO1; [2]
  IC50: 66 nM
Recombinant TDO; [2]
  IC50: 120 nM
[1]; [2]
  EC50: 2090 nM

## OC(CC1CCCCC1)c1c(I)ccc2cncn12 (stereo not drawn) [Example A124, 2-cyclohexyl-1-(6-iodoimidazo[1,5-a]pyridin-5-yl)ethan-1-ol]
Recombinant IDO1; [2]
  IC50: 19 nM
Recombinant TDO; [2]
  IC50: 8700 nM
[1]; [2]
  EC50: 275 nM

## OC(c1cc(Cl)cc2cncn12)C1CCCCC1 (stereo not drawn) [Example A101, (7-chloroimidazo[1,5-a]pyridin-5-yl)(cyclohexyl)methanol]
Recombinant IDO1; [2]
  IC50: 29 nM
Recombinant TDO; [2]
  IC50: 68 nM
[1]; [2]
  EC50: 1360 nM

## OC(c1cc(I)cc2cncn12)C1CCCCC1 (stereo not drawn) [Example A107, cyclohexyl(7-iodoimidazo[1,5-a]pyridin-5-yl)methanol 2,2,2-trifluoroacetate]
Recombinant IDO1; [2]
  IC50: 26 nM
Recombinant TDO; [2]
  IC50: 110 nM
[1]; [2]
  EC50: 968 nM

## OC(CC1CCCCC1)c1cc(Cl)cc2cncn12 (stereo not drawn) [Example A102, 1-(7-chloroimidazo[1,5-a]pyridin-5-yl)-2-cyclohexylethan-1-ol]
Recombinant IDO1; [2]
  IC50: 67 nM
Recombinant TDO; [2]
  IC50: 300 nM
[1]; [2]
  EC50: 1760 nM

## OC(CC1CCCCC1)c1cc(C(F)(F)F)cc2cncn12 (single isomer, unassigned) [Example A114a]
Recombinant IDO1; [2]
  IC50: 890 nM
Recombinant TDO; [2]
  IC50: 2600 nM
[1]; [2]
  EC50: > 10000 nM

## OC(c1c(Cl)c(Cl)cc2cncn12)C1CCCCC1 (single isomer, unassigned) [Example A143a]
Recombinant IDO1; [2]
  IC50: 20 nM
Recombinant TDO; [2]
  IC50: 690 nM
[1]; [2]
  EC50: 274 nM

## C=C(C)c1ccc2cncn2c1C(O)C1CCCCC1 (stereo not drawn) [Example A136, cyclohexyl(6-(prop-1en-2-yl)imidazo[1,5-a]pyridin-5-yl)methanol]
Recombinant IDO1; [2]
  IC50: 30 nM
Recombinant TDO; [2]
  IC50: 3300 nM
[1]; [2]
  EC50: 1610 nM

## OC(c1c(C2CC2)ccn2cncc12)C1CCCCC1 (single isomer, unassigned) [Example B107a]
Recombinant IDO1; [3]
  IC50: 47 nM
Recombinant TDO; [3]
  IC50: 1300 nM
[1]; [3]
  EC50: 136 nM

## OC(c1cc(C(F)(F)F)cc2cncn12)C1CCCCC1 (single isomer, unassigned) [Example A109b]
Recombinant IDO1; [2]
  IC50: 1400 nM
Recombinant TDO; [2]
  IC50: 1200 nM
[1]; [2]
  EC50: > 10000 nM

## Cc1ccn2cncc2c1C(O)CC1CCCCC1 (stereo not drawn) [Example B101, 2-cyclohexyl-1-(7-methylimidazo[1,5-a]pyridin-8-yl)ethan-1-ol]
Recombinant IDO1; [3]
  IC50: 14 nM
Recombinant TDO; [3]
  IC50: 1000 nM
[1]; [3]
  EC50: 439 nM

## OC(c1cc(Br)cc2cncn12)C1CCCC1 (stereo not drawn) [Example A112, (7-bromoimidazo[1,5-a]pyridin-5-yl)(cyclopentyl)methanol]
Recombinant IDO1; [2]
  IC50: 24 nM
Recombinant TDO; [2]
  IC50: 48 nM
[1]; [2]
  EC50: 1040 nM

## CC1CCC(C(O)c2cc(Cl)cc3cncn23)CC1 (stereo not drawn) [Example A104, (7-chloroimidazo[1,5-a]pyridin-5-yl)(4-methylcyclohexyl)methanol]
Recombinant IDO1; [2]
  IC50: 29 nM
Recombinant TDO; [2]
  IC50: 270 nM
[1]; [2]
  EC50: 2180 nM

## OC(c1c(Cl)ccc2cncn12)C1CCCCC1 (single isomer, unassigned) [Example A116b]
Recombinant IDO1; [2]
  IC50: 4800 nM
Recombinant TDO; [2]
  IC50: 67000 nM
[1]; [2]
  EC50: > 10000 nM

## Cc1cc(C(O)C2CCCCC2)c2cncn2c1 (stereo not drawn) [Example B011, Cyclohexyl (6-methylimidazo[1,5-a]pyridin-8-yl)methanol]
Recombinant IDO1; [3]
  IC50: 170 nM
Recombinant TDO; [3]
  IC50: 190 nM
[1]; [3]
  EC50: > 10000 nM

## OC(c1c(Cl)c(Br)cc2cncn12)C1CCCC1 (stereo not drawn) [Example A149, (7-bromo-6-chloroimidazo[1,5-a]pyridin-5-yl)(cyclopentyl)methanol]
Recombinant IDO1; [2]
  IC50: 35 nM
Recombinant TDO; [2]
  IC50: 160 nM
[1]; [2]
  EC50: 2060 nM

## OC1CCC(C(O)c2c(C3CC3)ccc3cncn23)CC1 (stereo not drawn) [Example A142, 4-((6-cyclopropylimidazo[1,5-a]pyridin-5-yl)(hydroxy)methyl)cyclohexan-1-ol]
Recombinant IDO1; [2]
  IC50: 130 nM
Recombinant TDO; [2]
  IC50: 64000 nM
[1]; [2]
  EC50: 574 nM

## OC(c1c(Cl)c(Cl)cc2cncn12)C1CCCCC1 (single isomer, unassigned) [Example A143b]
Recombinant IDO1; [2]
  IC50: 3400 nM
Recombinant TDO; [2]
  IC50: 14000 nM
[1]; [2]
  EC50: 6100 nM

## OC(c1c(C2CC2)ccn2cncc12)C1CCCC1 (stereo not drawn) [Example B109]
Recombinant IDO1; [3]
  IC50: 35 nM
Recombinant TDO; [3]
  IC50: 4600 nM
[1]; [3]
  EC50: 940 nM

## OC(c1c(I)ccc2cncn12)C1CCCCC1 (single isomer, unassigned) [Example A125b]
Recombinant IDO1; [2]
  IC50: 12000 nM
Recombinant TDO; [2]
  IC50: 46000 nM
[1]; [2]
  EC50: > 10000 nM

## OC(c1c(C(F)(F)F)ccc2cncn12)C1CCCCC1 (stereo not drawn) [Example A126, cyclohexyl(6-(trifluoromethyl)imidazo[1,5-a]pyridine-5-yl)methanol]
Recombinant IDO1; [2]
  IC50: 65 nM
Recombinant TDO; [2]
  IC50: 3100 nM
[1]; [2]
  EC50: 291 nM

From US10280163B2 (BeiGene, Ltd., priority 2015, dated 2019)
